Experimental data as given in paper PMC6792352, “Limited Chemical Structural Diversity Found to Modulate Thyroid Hormone Receptor in the Tox21 Chemical Library” (Environmental Health Perspectives, 2019).
Structures can show the parent of a compound that is named as a salt.

Test: in vitro
Details: rat, gh3-tre-luc cells

CCOP(=S)(OCC)SCCSCC [Disulfoton]
CC50 at 24 h (AC50 (uM) modified / 1000, Tox21_110001=Tox21_202343, viability, 1 nM T3 present, 24 h): > 90 µM | CC50 at 24 h (AC50 (uM) modified / 1000, Tox21_110001=Tox21_300861, viability, 1 nM T3 present, 24 h): > 40 µM

N#Cc1sc2c(=O)c3ccccc3c(=O)c=2sc1C#N [Dithianon]
CC50 at 24 h (AC50 (uM) modified / 1000): 29.4 µM

CCN1/C(=C/C=C/C=C/c2sc3ccccc3[n+]2CC)Sc2ccccc21 [Dithiazanine iodide]
CC50 at 24 h (AC50 (uM) modified / 1000): 4.14 µM

NC(=S)C(N)=S [Dithiooxamide]
CC50 at 24 h (AC50 (uM) modified / 1000): > 90 µM

CSC(=O)c1c(C(F)F)nc(C(F)(F)F)c(C(=O)SC)c1CC(C)C [Dithiopyr]
CC50 at 24 h (AC50 (uM) modified / 1000): 57.6 µM

CCCCCCCCCCCOC(=O)c1ccccc1C(=O)OCCCCCCCCCCC [Diundecyl phthalate]
CC50 at 24 h (AC50 (uM) modified / 1000): > 50 µM

CN(C)C(=O)Nc1ccc(Cl)c(Cl)c1 [Diuron]
CC50 at 24 h (AC50 (uM) modified / 1000): > 90 µM

C=Cc1ccccc1C=C [Divinylbenzene]
CC50 at 24 h (AC50 (uM) modified / 1000): > 400 µM

C=C[Si](C)(C=C)O[Si](C)(C)C [Divinyltetramethyldisiloxane]
CC50 at 24 h (AC50 (uM) modified / 1000): > 90 µM

C[C@]12N[C@H](Cc3ccccc31)c1ccccc12 [Dizocilpine maleate]
CC50 at 24 h (AC50 (uM) modified / 1000, Tox21_110001=Tox21_111251, viability, 1 nM T3 present, 24 h): > 50 µM

CC(CCc1ccc(O)cc1)NCCc1ccc(O)c(O)c1 (stereo not drawn) [Dobutamine]
CC50 at 24 h (AC50 (uM) modified / 1000): > 50 µM

CC1=C(C)C(=O)C(CCCCC#CCCCC#CCO)=C(C)C1=O [Docebenone]
CC50 at 24 h (AC50 (uM) modified / 1000): 23.5 µM

CCCCCCCCCCCC [Dodecane]
CC50 at 24 h (AC50 (uM) modified / 1000): > 90 µM

O=C(O)CCCCCCCCCCC(=O)O [Dodecanedioic acid]
CC50 at 24 h (AC50 (uM) modified / 1000): > 90 µM

CCCCCCCCCCCC#N [Dodecanenitrile]
CC50 at 24 h (AC50 (uM) modified / 1000, Tox21_110001=Tox21_201304, viability, 1 nM T3 present, 24 h): > 90 µM

CCCCCCCCCCCC(=O)O [Dodecanoic acid]
CC50 at 24 h (AC50 (uM) modified / 1000): > 90 µM

C=C(C)C(=O)OCCCCCCCCCCCC [Dodecyl 2-methylacrylate]
CC50 at 24 h (AC50 (uM) modified / 1000): > 90 µM

CCCCCCCCCCCCOC(C)=O [Dodecyl acetate]
CC50 at 24 h (AC50 (uM) modified / 1000): > 90 µM

CCCCCCCCCCCCOCC1CO1 (stereo not drawn) [Dodecyl glycidyl ether]
CC50 at 24 h (AC50 (uM) modified / 1000): > 90 µM

CCCCCCCCCCCCc1ccccc1 [Dodecylbenzene]
CC50 at 24 h (AC50 (uM) modified / 1000): > 90 µM

CCCCCCCCCCCCOC(=O)c1ccc(O)cc1 [Dodecylparaben]
CC50 at 24 h (AC50 (uM) modified / 1000): 26 µM

CCCCCCCCCCCC[N+](C)(C)C [Dodecyltrimethylammonium chloride]
CC50 at 24 h (AC50 (uM) modified / 1000): 15.8 µM

CCCCCCCCCCCCNC(=N)N [Dodine]
CC50 at 24 h (AC50 (uM) modified / 1000): > 4 µM

CN(CCOc1ccc(NS(C)(=O)=O)cc1)CCc1ccc(NS(C)(=O)=O)cc1 [Dofetilide]
CC50 at 24 h (AC50 (uM) modified / 1000): > 50 µM

O=C(O[C@@H]1C[C@@H]2C[C@H]3C[C@H](C1)N2CC3=O)c1c[nH]c2ccccc12 [Dolasetron mesylate]
CC50 at 24 h (AC50 (uM) modified / 1000): 37.3 µM

O=c1[nH]c2ccccc2n1CCCN1CCC(n2c(=O)[nH]c3cc(Cl)ccc32)CC1 [Domperidone]
CC50 at 24 h (AC50 (uM) modified / 1000): 40.2 µM

NCCc1ccc(O)c(O)c1 [Dopamine hydrochloride]
CC50 at 24 h (AC50 (uM) modified / 1000): 55.3 µM

Oc1ccc(CCNCCCCCCNCCc2ccccc2)cc1O [Dopexamine]
CC50 at 24 h (AC50 (uM) modified / 1000): 37.1 µM

Cc1ccc(-n2nc(C(C)(C)C)cc2NC(=O)Nc2ccc(OCCN3CCOCC3)c3ccccc23)cc1 [Doramapimod]
CC50 at 24 h (AC50 (uM) modified / 1000): > 50 µM

CO[C@H]1C[C@H](O[C@H]2[C@H](C)O[C@@H](O[C@@H]3/C(C)=C/C[C@@H]4C[C@@H](C[C@]5(C=C[C@H](C)[C@@H](C6CCCCC6)O5)O4)OC(=O)[C@@H]4C=C(C)[C@@H](O)[C@H]5OC/C(=C\C=C\[C@@H]3C)[C@]54O)C[C@@H]2OC)O[C@@H](C)[C@@H]1O [Doramectin]
CC50 at 24 h (AC50 (uM) modified / 1000): 2.94 µM

O=[N+]([O-])c1nccn1CO[C@@H](CO)[C@H](O)CO [Doranidazole]
CC50 at 24 h (AC50 (uM) modified / 1000): > 50 µM

C[C@@H](O)[C@H]1C(=O)N2C(C(=O)O)=C(S[C@@H]3CN[C@H](CNS(N)(=O)=O)C3)[C@H](C)[C@H]12 [Doripenem]
CC50 at 24 h (AC50 (uM) modified / 1000): > 50 µM

CCN[C@H]1C[C@H](C)S(=O)(=O)c2sc(S(N)(=O)=O)cc21 [Dorzolamide hydrochloride]
CC50 at 24 h (AC50 (uM) modified / 1000): > 50 µM

CN(C)CC/C=C1\c2ccccc2CSc2ccccc21 [Dothiepin hydrochloride]
CC50 at 24 h (AC50 (uM) modified / 1000): 6.1 µM

CCN1CC(CCN2CCOCC2)C(c2ccccc2)(c2ccccc2)C1=O (stereo not drawn) [Doxapram hydrochloride]
CC50 at 24 h (AC50 (uM) modified / 1000): > 50 µM

COc1cc2nc(N3CCN(C(=O)C4COc5ccccc5O4)CC3)nc(N)c2cc1OC (stereo not drawn) [Doxazosin mesylate]
CC50 at 24 h (AC50 (uM) modified / 1000): 25.4 µM

CN(C)CCC=C1c2ccccc2COc2ccccc21 [Doxepin hydrochloride]
CC50 at 24 h (AC50 (uM) modified / 1000): 13.5 µM

C[C@H]1O[C@@H](n2cc(F)c(=O)[nH]c2=O)[C@H](O)[C@@H]1O [Doxifluridine]
CC50 at 24 h (AC50 (uM) modified / 1000): > 50 µM
